Reference: patent US5948786A, “Piperidinylpyrimidine derivatives” (Sumitomo Pharmaceuticals Company, Limited, priority 1996, dated 1999)

Test system: TNF α production from mouse macrophages
Assay: Inhibitory activity of compound on TNF α Production from mouse macrophages (LPS-induced PEC's)
Type: cell-based
Conditions: Macrophage, LPS 10 μg/ml, 18 hours
Description: BALB/c mice (female, 5-7 weeks old, Charles River Japan, Tokyo, Japan) were injected i.p. with 1 ml of 2.4% thioglycollate broth. After 4 days, the mice were sacrificed. Peritoneal exudated cells (PEC's) were collected from the peritoneal cavity by washing with minimum essential medium (MEM, Handai biseibutubyou kenkyukai, Osaka, Japan) containing 5 U/ml heparin, 1% fetal bovine serum (FBS, Filtron, Victoria, Australia) and antibiotics. The cells were washed two times with MEM, suspended with MEM containing 10% FBS (complete MEM, cMEM) and seeded into 96-well culture plates (Costar, Cambridge, Mass., USA) at 2×10^5 cells/well. The cells were incubated for 1 hour at 37° C. in a humidified 5% CO2 incubator and washed two times to remove non-adherent cells.
TNF α was induced by 10 μg/ml of LPS (E. coli O111B4, DIFCO, Detroit, Mich., USA) the cells were cultured for 18 hours at 37° C. A compound of the present invention was dissolved in DMSO and added to the culture simultaneously with LPS. The final DMSO concentration was below 0.1%. The TNF α concentration in supernatant and recombinant mouse TNF α standard (rm-TNF α, Genzyme, Mass., USA) were incubated overnight at 4° C. in a 96-well plate coated with anti-mouse TNF α monoclonal antibody (PharMingen, San Diego, Calif., USA) that previously had been blocked with 10% FBS. Each well of the plate first was incubated at room temperature with biotinylated anti-mouse TNF α polyclonal antibodies (PharMingen) for 45 minutes, then with peroxidase-conjugated streptavidin (Kirkegaard & Perry Laboratories Inc., Gaitherburg, Md., USA) for 30 minutes. After each incubation, the plate was washed 4 to 8 times with PBS containing 0.2% Tween 20. TMB (Kirkegaard & Perry Laboratories Inc.) was the peroxidase substrate used and, the absorbance of each well was quantified at 450 nm by a microplatereader (Molecular Devices Corp., CA, USA). TNF α levels in the supernatant were quantified with rm-TNF α as the standard.

SMILES | inhibition at 30 µM [%]
Nc1nc(C2CCN(C(=O)c3ccc(Cl)cc3Cl)CC2)c2ccccc2n1 [Example 59] | 56
Nc1nc(C2CCN(C(=O)c3cc(Cl)ccc3Cl)CC2)c2ccccc2n1 [Example 60] | 73
Nc1nc(C2CCN(C(=O)c3ccc(Cl)c(Cl)c3)CC2)c2ccccc2n1 [Example 62] | 55
Nc1nc(C2CCN(C(=O)c3cccc4ccccc34)CC2)c2ccccc2n1 [Example 66] | 32
COc1ccc(C(=O)N2CCC(c3nc(N)nc4ccccc34)CC2)c(OC)c1OC [Example 68] | 8
COc1ccc(OC)c(C(=O)N2CCC(c3nc(N)nc4ccccc34)CC2)c1OC [Example 69] | -95
COc1cc(C(=O)N2CCC(c3nc(N)nc4ccccc34)CC2)cc(OC)c1OC [Example 72] | 32
Nc1nc(C2CCN(C(=O)c3cc(Cl)cc(Cl)c3Cl)CC2)c2ccccc2n1 [Example 73] | 23
Nc1nc(C2CCN(C(=O)c3c(Cl)ccc(Cl)c3Cl)CC2)c2ccccc2n1 [Example 74] | 88
Nc1nc(C2CCN(C(=O)c3c(Cl)cc(Cl)cc3Cl)CC2)c2ccccc2n1 [Example 75] | 92
COc1ccccc1CC(=O)N1CCC(c2nc(N)nc3ccccc23)CC1 [Example 77] | 27
COc1cccc(CC(=O)N2CCC(c3nc(N)nc4ccccc34)CC2)c1 [Example 78] | 10
COc1ccc(CC(=O)N2CCC(c3nc(N)nc4ccccc34)CC2)cc1 [Example 79] | -3
Nc1nc(C2CCN(C(=O)Cc3ccccc3Cl)CC2)c2ccccc2n1 [Example 80] | 28
Nc1nc(C2CCN(C(=O)Cc3cccc(Cl)c3)CC2)c2ccccc2n1 [Example 81] | 56
Nc1nc(C2CCN(C(=O)Cc3ccc(Cl)cc3)CC2)c2ccccc2n1 [Example 82] | 59
Nc1nc(C2CCN(C(=O)Cc3ccc([N+](=O)[O-])cc3)CC2)c2ccccc2n1 [Example 88] | 26
COc1ccc(CC(=O)N2CCC(c3nc(N)nc4ccccc34)CC2)cc1OC [Example 92] | 68
COc1cc(CC(=O)N2CCC(c3nc(N)nc4ccccc34)CC2)cc(OC)c1 [Example 93] | 60
Nc1nc(C2CCN(C(=O)Cc3ccc(Cl)cc3Cl)CC2)c2ccccc2n1 [Example 94] | 78

SMILES | inhibition at 30 µM [%]
Nc1nc(C2CCN(C(=O)Cc3ccc(Cl)c(Cl)c3)CC2)c2ccccc2n1 [Example 96] | 100
Nc1nc(C2CCN(C(=O)Cc3ccc([N+](=O)[O-])cc3[N+](=O)[O-])CC2)c2ccccc2n1 [Example 97] | 45
Nc1nc(C2CCN(C(=O)Cc3c(Cl)ccc(Cl)c3Cl)CC2)c2ccccc2n1 [Example 98] | 43
CCCCCCC(=O)N1CCC(c2nc(N)nc3ccc(OC)cc23)CC1 [Example 103] | 44
CCCCCCCC(=O)N1CCC(c2nc(N)nc3ccc(OC)cc23)CC1 [Example 104] | 50
CCCCCCCCC(=O)N1CCC(c2nc(N)nc3ccc(OC)cc23)CC1 [Example 105] | 54
CCCCCCCCCC(=O)N1CCC(c2nc(N)nc3ccc(OC)cc23)CC1 [Example 106] | 54
COc1ccc(C(=O)N2CCC(c3nc(N)nc4ccc(OC)cc34)CC2)cc1 [Example 110] | 21
COc1ccc2nc(N)nc(C3CCN(C(=O)c4ccc(Cl)cc4)CC3)c2c1 [Example 113] | -1
COc1ccc2nc(N)nc(C3CCN(C(=O)c4ccc([N+](=O)[O-])cc4)CC3)c2c1 [Example 116] | 23
COc1ccc(CC(=O)N2CCC(c3nc(N)nc4ccc(OC)cc34)CC2)cc1 [Example 120] | 31
COc1ccc2nc(N)nc(C3CCN(C(=O)Cc4ccc(Cl)cc4)CC3)c2c1 [Example 123] | 28
COc1ccc2nc(N)nc(C3CCN(C(=O)Cc4ccc([N+](=O)[O-])cc4)CC3)c2c1 [Example 126] | 43
CCCCCCCC(=O)N1CCC(c2nc(N)nc3ccc(Cl)cc23)CC1 [Example 127] | 48
CCCCCCCCC(=O)N1CCC(c2nc(N)nc3ccc(Cl)cc23)CC1 [Example 128] | 79
CCCCCCCCCC(=O)N1CCC(c2nc(N)nc3ccc(Cl)cc23)CC1 [Example 129] | 48
COc1ccc(CC(=O)N2CCC(c3nc(N)nc4ccc(Cl)cc34)CC2)cc1 [Example 131] | 23
Nc1nc(C2CCN(C(=O)Cc3ccc(Cl)cc3)CC2)c2cc(Cl)ccc2n1 [Example 132] | 55
Nc1nc(C2CCN(C(=O)Cc3ccc([N+](=O)[O-])cc3)CC2)c2cc(Cl)ccc2n1 [Example 133] | 35
CCCCCCCC(=O)N1CCC(c2cc(-c3ccccc3)nc(N)n2)CC1 [Example 136] | 48

SMILES | inhibition at 30 µM [%]
CCCCCCCCC(=O)N1CCC(c2cc(-c3ccccc3)nc(N)n2)CC1 [Example 137] | 67
CCCCCCCCCC(=O)N1CCC(c2cc(-c3ccccc3)nc(N)n2)CC1 [Example 138] | 70
COc1ccc(CC(=O)N2CCC(c3cc(-c4ccccc4)nc(N)n3)CC2)cc1 [Example 142] | 55
Nc1nc(-c2ccccc2)cc(C2CCN(C(=O)Cc3ccc(Cl)cc3)CC2)n1 [Example 143] | 55
Nc1nc(-c2ccccc2)cc(C2CCN(C(=O)Cc3ccc([N+](=O)[O-])cc3)CC2)n1 [Example 144] | 6
CCCCCCCC(=O)N1CCC(c2cc(-c3ccc(Cl)cc3)nc(N)n2)CC1 [Example 147] | 55
CCCCCCCCC(=O)N1CCC(c2cc(-c3ccc(Cl)cc3)nc(N)n2)CC1 [Example 148] | 68
CCCCCCCCCC(=O)N1CCC(c2cc(-c3ccc(Cl)cc3)nc(N)n2)CC1 [Example 149] | 57
COc1ccc(CC(=O)N2CCC(c3cc(-c4ccc(Cl)cc4)nc(N)n3)CC2)cc1 [Example 151] | 70
Nc1nc(-c2ccc(Cl)cc2)cc(C2CCN(C(=O)Cc3ccc(Cl)cc3)CC2)n1 [Example 152] | 90
Nc1nc(-c2ccc(Cl)cc2)cc(C2CCN(C(=O)Cc3ccc([N+](=O)[O-])cc3)CC2)n1 [Example 153] | 92
CCCCCCCC(=O)N1CCC(c2cc(-c3ccc(OC)cc3)nc(N)n2)CC1 [Example 154] | 86
CCCCCCCCC(=O)N1CCC(c2cc(-c3ccc(OC)cc3)nc(N)n2)CC1 [Example 155] | 76
CCCCCCCCCC(=O)N1CCC(c2cc(-c3ccc(OC)cc3)nc(N)n2)CC1 [Example 156] | 74
COc1ccc(CC(=O)N2CCC(c3cc(-c4ccc(OC)cc4)nc(N)n3)CC2)cc1 [Example 158] | 61
COc1ccc(-c2cc(C3CCN(C(=O)Cc4ccc(Cl)cc4)CC3)nc(N)n2)cc1 [Example 159] | 75
COc1ccc(-c2cc(C3CCN(C(=O)Cc4ccc([N+](=O)[O-])cc4)CC3)nc(N)n2)cc1 [Example 160] | 57
COc1ccc(Cc2cc(C3CCN(C(C)=O)CC3)nc(N)n2)cc1 [Example 162] | 61
CCC(=O)N1CCC(c2cc(Cc3ccc(OC)cc3)nc(N)n2)CC1 [Example 163] | 79
